Laboratory results as given in the supplement of paper PMC10307832.

Experiments:
Test in all cases: relative viability (nuclei count vs DMSO), 5 days (fraction); higher = more cells survive
GSK126 + Vorinostat = compound: CC[C@H](C)N1C=C(C2=C(C=C(C=C21)C3=CN=C(C=C3)N4CCNCC4)C(=O)NCC5=C(C=C(NC5=O)C)C)C [GSK126] + O=C(CCCCCCC(=O)Nc1ccccc1)NO [Vorinostat] (partner 1 µM)
Outline: (§1)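 A single step with final 0.05% Triton X-100, 1% formaldehyde and 1 ug/ml Hoechst fixed the cells and stained nuclei 5 days after treatment. Lung cancer cell lines in 1536-well plates had been treated by pin tool the day after seeding with one drug alone or a fixed anchor-drug dose plus five library-drug doses (not always all listed) in √10 steps, and nuclei were counted on 4× images. Relative viability is the ratio of nuclei in treated wells to nuclei in vehicle wells, taken as the median of duplicate plates.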

MLN4924 + Tozasertib = compound: NS(=O)(=O)OC[C@@H]1C[C@@H](n2ccc3c(N[C@H]4CCc5ccccc54)ncnc32)C[C@@H]1O [MLN4924] + Cc1cc(Nc2cc(N3CCN(C)CC3)nc(Sc3ccc(NC(=O)C4CC4)cc3)n2)n[nH]1 [Tozasertib] (partner 0.1 µM)
Outline: as §1

MLN4924 + Dasatinib = compound: NS(=O)(=O)OC[C@@H]1C[C@@H](n2ccc3c(N[C@H]4CCc5ccccc54)ncnc32)C[C@@H]1O [MLN4924] + Cc1nc(Nc2ncc(C(=O)Nc3c(C)cccc3Cl)s2)cc(N2CCN(CCO)CC2)n1 [Dasatinib] (partner 0.075 µM)
Outline: as §1

GSK126 + Alpelisib = compound: CC[C@H](C)N1C=C(C2=C(C=C(C=C21)C3=CN=C(C=C3)N4CCNCC4)C(=O)NCC5=C(C=C(NC5=O)C)C)C [GSK126] + Cc1nc(NC(=O)N2CCC[C@H]2C(N)=O)sc1-c1ccnc(C(C)(C)C(F)(F)F)c1 [Alpelisib] (partner 2 µM)
Outline: as §1

Row | Cell Line | relative viability (GSK126 + Vorinostat; first compound 0.08 µM) | relative viability (GSK126 + Vorinostat; first compound 0.253 µM) | relative viability (GSK126 + Vorinostat; first compound 0.8 µM) | relative viability (GSK126 + Vorinostat; first compound 2.53 µM) | relative viability (GSK126 + Vorinostat; first compound 8 µM) | relative viability (MLN4924 + Tozasertib; first compound 0.04 µM) | relative viability (MLN4924 + Tozasertib; first compound 0.1265 µM) | relative viability (MLN4924 + Tozasertib; first compound 0.4 µM) | relative viability (MLN4924 + Tozasertib; first compound 1.265 µM) | relative viability (MLN4924 + Tozasertib; first compound 4 µM) | relative viability (MLN4924 + Dasatinib; first compound 0.04 µM) | relative viability (MLN4924 + Dasatinib; first compound 0.1265 µM) | relative viability (MLN4924 + Dasatinib; first compound 0.4 µM) | relative viability (MLN4924 + Dasatinib; first compound 1.265 µM) | relative viability (MLN4924 + Dasatinib; first compound 4 µM) | relative viability (GSK126 + Alpelisib; first compound 0.08 µM) | relative viability (GSK126 + Alpelisib; first compound 0.253 µM) | relative viability (GSK126 + Alpelisib; first compound 0.8 µM) | relative viability (GSK126 + Alpelisib; first compound 2.53 µM) | relative viability (GSK126 + Alpelisib; first compound 8 µM)
1 | LC-2-ad | 0.767 | 0.667 | 0.704 | 0.712 | 0.63 | 0.434 | 0.344 | 0.362 | 0.218 | 0.198 | 0.551 | 0.408 | 0.498 | 0.144 | 0.2 | 0.927 | 0.967 | 0.773 | 0.793 | 0.9
2 | ABC-1 | 1.19 | 1.08 | 1.05 | 1.11 | 1.01 | 0.154 | 0.155 | 0.144 | 0.132 | 0.149 | 0.426 | 0.433 | 0.302 | 0.213 | 0.237 | 1.19 | 1.31 | 1.02 | 1.11 | 1.01
3 | NCI-H647 | 0.724 | 0.61 | 0.614 | 0.592 | 0.687 | 0.281 | 0.181 | 0.149 | 0.0334 | 0.0369 | 0.235 | 0.195 | 0.113 | 0.0353 | 0.0361 | 1.33 | 1.34 | 1.1 | 1.05 | 0.919
4 | NCI-H1734 | 0.906 | 0.816 | 0.804 | 0.766 | 0.769 | 0.261 | 0.267 | 0.154 | 0.12 | 0.0994 | 0.636 | 0.588 | 0.305 | 0.0902 | 0.102 | 0.789 | 0.605 | 0.654 | 0.698 | 0.682
5 | LOU-NH91 | 0.909 | 0.878 | 0.781 | 0.957 | 0.905 | 0.641 | 0.689 | 0.502 | 0.336 | 0.342 | 0.554 | 0.708 | 0.778 | 0.494 | 0.415 | 0.778 | 0.694 | 0.696 | 0.721 | 0.722
6 | NCI-H1793 | 0.841 | 0.703 | 0.717 | 0.825 | 0.671 | 0.337 | 0.356 | 0.368 | 0.252 | 0.168 | 0.384 | 0.366 | 0.408 | 0.345 | 0.325 | 0.968 | 0.783 | 0.548 | 0.511 | 0.766
7 | NCI-H441 | 1.04 | 0.59 | 0.714 | 0.673 | 0.791 | 0.674 | 0.444 | 0.329 | 0.236 | 0.22 | 0.603 | 0.47 | 0.337 | 0.212 | 0.141 | 0.756 | 0.717 | 0.76 | 0.566 | 0.753
8 | RERF-LC-KJ | 0.747 | 0.791 | 0.654 | 0.716 | 0.827 | 0.471 | 0.366 | 0.193 | 0.202 | 0.201 | 0.717 | 0.661 | 0.266 | 0.206 | 0.242 | 0.881 | 0.803 | 0.697 | 0.845 | 0.734
9 | H3255 | 0.821 | 0.865 | 0.842 | 0.817 | 0.794 | 0.671 | 0.374 | 0.339 | 0.236 | 0.286 | 0.314 | 0.349 | 0.296 | 0.256 | 0.235 | 0.716 | 0.679 | 0.847 | 0.643 | 0.738
10 | A-427 | 0.863 | 0.833 | 0.865 | 0.958 | 0.896 | 0.168 | 0.164 | 0.128 | 0.131 | 0.133 | 0.367 | 0.529 | 0.248 | 0.145 | 0.179 | 1.12 | 1.07 | 1.05 | 1.16 | 1.06
